This note sets out measurements from ChEMBL document CHEMBL3507680, “University of Dundee, Gates Library screen for HepG2 cell viability”.

Molecules are shown by their SMILES.

This series can be described thus: Human HepG2 cell viability assay in 384 well format. Type of series: toxicity, cell-based. Also on record: dose 125 nL, time 70.5 hour; cytotoxicity at 70.5 h: concentration not given beside the values. The note with it: HepG2 cells, read-out: Inhibition.
On to `CC(C)N(C)Cc1noc2c1CN(C(=O)c1cnccn1)CC2`, for which the cytotoxicity at 70.5 h is -1.15%.

Take `CN1CCCC2(CC1)CCN(C(=O)CCc1ccccc1F)CC2`: the cytotoxicity at 70.5 h is -6.92%. As for `Cc1ccc(F)cc1NC(=O)CCn1cncn1`, the cytotoxicity at 70.5 h is -8.38%.

On to `CC(=O)Nc1nc(C(=O)NC(C)c2ccncc2)cs1` (stereo not given), for which the cytotoxicity at 70.5 h was 5.86%. With `CCCn1cc(NC(=O)c2ccc(NC(=O)NC3CC3)cc2)ccc1=O`, the cytotoxicity at 70.5 h was -10.8%.

Take `COc1ccc(OCc2cc(C(=O)N3CCN[C@H](C)C3)n[nH]2)c(Cl)c1`: the cytotoxicity at 70.5 h was -9.79%.

As for `Cn1cc(C(=O)N2C[C@@H]3CN(S(C)(=O)=O)CCO[C@@H]3C2)cn1`, the cytotoxicity at 70.5 h is -0.664%. Turning to `CC(C)[C@H]1CN(Cc2ccccn2)C[C@@H]1NC(=O)CCS(C)(=O)=O`, the cytotoxicity at 70.5 h was -4.06%. Next, `Cc1ccccc1CC1(C(=O)O)CCCN(c2ncccn2)C1` (stereo not given): -7.63%; `O=C1CN(CCS(=O)(=O)c2ccc(Cl)cc2)CCN1`: -11.9%. Next, `Cc1cnn(CCCNC(=O)C2CCCCN2Cc2ccncc2)c1` (stereo not given): -4.19%; `Cc1nnc(C(C)N2CCCN(Cc3noc(C4CC4)n3)CC2)o1` (stereo not given): 13.7%; `Cc1ccc(C(C)(O)CNC(=O)CCn2ccnc2C(C)C)o1` (stereo not given): -2.97%. Next, `CC(C)OCCCNS(=O)(=O)c1ccc2c(c1)NC(=O)C(C)O2` (stereo not given): -4.7%; `CN1C(=O)CO[C@H](c2ccc(NC(=O)Nc3ccccc3)cc2)[C@H]1CO`: -7.02%; `Cc1nnc(SCCNC(=O)CC2CCc3ccccc32)s1` (stereo not given): -4.12%. In the case of `COc1ccc(OC)c(C(O)CN2CC(n3cccn3)C2)c1` (stereo not given), the cytotoxicity at 70.5 h was -9.37%. For the molecule `Cc1nc(NCC(O)CN2CCCCCC2)c2c(C)nn(C)c2n1` (stereo not given), the cytotoxicity at 70.5 h is -8.64%. In the case of `CCn1nc(CNC(=O)C2CCCN(CC(N)=O)C2)c2ccccc21` (stereo not given) it was -14.9%; in that of `CCCc1ncc(C(=O)N2CCOC(c3nc(C)n[nH]3)C2)s1` (stereo not given), -7.33%; in that of `Cc1ccccc1OCC(=O)N1CCCC(CNS(C)(=O)=O)C1` (stereo not given), -5.65%. As for `CS(=O)(=O)Cc1ccc(C(=O)NCC2Cc3ccccc3O2)cc1` (stereo not given), the cytotoxicity at 70.5 h was -0.3%. On to `CC(C)(CNC(=O)CCCOc1cccc(F)c1)C(N)=O`, for which the cytotoxicity at 70.5 h was -14.4%. As for `Cn1c(C(N)=O)ccc1-c1ccccc1`, the cytotoxicity at 70.5 h worked out at 6.66%. On to `O=C([C@@H]1CSCN1)N1CCC2(CC1)CNCc1ccccc12`, for which the cytotoxicity at 70.5 h was 3.6%. Regarding `O=C(Cn1cnc2ccsc2c1=O)NCCCc1nnc2ccccn12`, the cytotoxicity at 70.5 h was 26.5%. Next, `CC(=O)N1CCCC(C(=O)Nc2ccccc2Cc2ccccc2)C1` (stereo not given): 3.24%; `CC(C)C(=O)NCc1ccccc1NS(=O)(=O)c1ccccc1`: -3.22%.

Regarding `Cc1nc(CNC(=O)NCC(O)c2cccc(Cl)c2)cs1` (stereo not given), the cytotoxicity at 70.5 h stood at 5.52%.

`CC1=Nc2c(c(O)nn2C(C)C)C(c2cn(C)nc2C)S1` (stereo not given): the cytotoxicity at 70.5 h amounted to 21%. With `CC(C)(C)c1ncc(CNCC2CCCn3ccnc32)s1` (stereo not given), the cytotoxicity at 70.5 h is -4.17%.

Take `CCc1nsc(N2CCn3c(nnc3-c3ccccc3)C2)n1`: the cytotoxicity at 70.5 h is -4.9%.

Turning to `CC(C)(C)CNC[C@H]1Cn2c(-c3ccccc3)cnc2CO1`, the cytotoxicity at 70.5 h was -3.54%. For `Cn1ccc(CN2CCCC(CNS(C)(=O)=O)C2)cc1=O` (stereo not given), the cytotoxicity at 70.5 h is -10.1%. Next, `CN(Cc1ccncc1)C1COC2(CCN(Cc3ccccn3)CC2)C1` (stereo not given): -7%; `C[C@@H]1CN(Cc2cn(C)nc2-c2ccccc2F)C[C@H](C)O1`: -11.3%.

On to `O=C(NCC1CC1)C1CN(c2ncccn2)Cc2ccnn2C1` (stereo not given), for which the cytotoxicity at 70.5 h is -14.5%. As to `Cc1cc(NC(=O)[C@H]2CCCCN2C(=O)OC(C)(C)C)no1`, the cytotoxicity at 70.5 h is -2.01%. In the case of `CN(C1CCCCC1)S(=O)(=O)N1CCN(Cc2ccon2)CC1`, the cytotoxicity at 70.5 h was -9.52%. Regarding `O=C(NC1CCCCC1)c1c(F)cccc1F`, the cytotoxicity at 70.5 h was determined as 4.08%. In the case of `CCC(CO)N(Cc1ccsc1)Cc1ccccc1C(=O)O` (stereo not given), the cytotoxicity at 70.5 h was -8.61%. With `COCC1c2c(cnn2C)CCN1C(=O)c1cccn1C` (stereo not given), the cytotoxicity at 70.5 h was -6.36%. In the case of `Cc1noc2nc(C3CCN(Cc4cccnc4)CC3)cc(C(F)F)c12` it was -3.96%; in that of `Cc1ccc(C2CN(C(=O)c3ccn(C)c(=O)c3)CCO2)nc1` (stereo not given), -7.64%. With `Cc1nc(N2CCCC2)nc2c1CN(C(C)C)CC2`, the cytotoxicity at 70.5 h was -12.7%. `COCCC1(CNC(=O)Nc2ccc(-n3ccnn3)cc2)CCC1`: the cytotoxicity at 70.5 h is 4.76%.

As for `O=C(O)[C@H]1CN(Cc2ccccc2)C[C@@H]1C(=O)c1ccccc1`, the cytotoxicity at 70.5 h is -3.77%. As to `Cc1ccsc1-c1nccn1CCN1CCCOC1=O`, the cytotoxicity at 70.5 h was -9.87%. In the case of `CNCC(=O)N1CC(c2cc(Nc3nc(C)cs3)nc(C)n2)C1` it was -12.3%; in that of `Cn1ccnc1CN(CCO)Cc1ccc(C(F)(F)F)cc1`, -6.45%. In the case of `COc1ccc(N2CCN(C(=O)[C@H]3[C@@H]4CNC[C@@H]43)CC2(C)C)cc1` it was 18.4%; in that of `Cc1ncc(CN2CCOC(c3ccc(-c4cc[nH]n4)cn3)C2)s1` (stereo not given), -2.9%. As for `Cn1cccc1C(=O)N1CCCC2(CCN(CCN3CCCC3)C2=O)C1` (stereo not given), the cytotoxicity at 70.5 h was -2.83%.

Take `CC(C)n1cc(C(=O)NCCN(C)C)c2n[nH]c(=O)c-2c1`: the cytotoxicity at 70.5 h was 1.2%.

As to `COc1cc(CN(C)C(=O)NCc2cccc3c2OCO3)ccc1SC`, the cytotoxicity at 70.5 h is -6.35%. On to `Cn1nc2c(cc1=O)CN(Cc1nc(N)c3ccccc3n1)CC2`, for which the cytotoxicity at 70.5 h is 7.46%. On to `O=C(NC[C@H]1OC[C@@H](NC2CCC2)[C@@H]1O)Nc1ccccc1`, for which the cytotoxicity at 70.5 h was 16.4%. As to `COc1cccc(CCCN2CCC(N(C)S(C)(=O)=O)CC2)c1`, the cytotoxicity at 70.5 h was found to be 4.63%. Take `CCS(=O)(=O)N1CCC2(CCN(Cc3nccs3)CC2)CC1`: the cytotoxicity at 70.5 h is 15.2%. With `O=C(Nc1ccc(N2CCCC2)nc1)N1CCc2ccccc2C1`, the cytotoxicity at 70.5 h stood at 3.91%.

As to `CN(CC(=O)Nc1ccccc1C(=O)NC1CC1)Cc1ccccc1Cl`, the cytotoxicity at 70.5 h is 0.515%.

`Cc1cccc(-c2nc(CN3CCCCC3Cn3cncn3)no2)c1` (stereo not given): the cytotoxicity at 70.5 h was -4.62%. As for `CN1CC[C@H](N(Cc2ccccc2)CC2CC2)C[C@H](O)C1`, the cytotoxicity at 70.5 h was 9.84%.

As for `C[C@]1(O)CN(Cc2cccc(C(=O)O)c2)CC[C@@H]1Oc1cccc(F)c1`, the cytotoxicity at 70.5 h was -4.99%. Regarding `Cc1ccc(S(=O)(=O)N2CSCC2C(=O)N(C)C2CC2)cc1Cl` (stereo not given), the cytotoxicity at 70.5 h was -12.2%. Next, `CCSc1ccc(NC(=O)NC(C)c2c(C)noc2C)cn1` (stereo not given): -6.61%; `Cc1cc(C)nc(NC(=O)NCCCSc2nncn2C)n1`: -8.45%. On to `CC(C)Oc1cccc(C(=O)Nc2nncs2)c1`, for which the cytotoxicity at 70.5 h is -11.6%. On to `CCCC(=O)NCC(=O)NC1CC(C)(C)Cc2oc(C)cc21` (stereo not given), for which the cytotoxicity at 70.5 h is -5.41%. `CC(C)c1ccc(OCCC(=O)N(C)CC(=O)N(C)C)cc1`: the cytotoxicity at 70.5 h stood at 16%. Consider `Cc1nc2c(c(C)c1CC(=O)NCc1ccco1)c(=O)[nH]n2C`, for which the cytotoxicity at 70.5 h was -3.09%. Next, `O=C(C1CCCCC1)N1C[C@@H]2CCN(c3cnccn3)C[C@@H]2C1`: -6.4%. As for `COc1ccc(C2Nc3cc(Cl)ccc3C3=NCCN32)cc1CO` (stereo not given), the cytotoxicity at 70.5 h came to 9.73%. On to `CNc1nc2c(s1)C(c1ccccc1Cl)CC(=O)N2` (stereo not given), for which the cytotoxicity at 70.5 h was -21.9%. Consider `Cc1cnccc1NCCNC(=O)C1CCCN(Cc2ccco2)C1` (stereo not given), for which the cytotoxicity at 70.5 h was determined as 9.92%. On to `CC(C)CCC(=O)Nc1ccc2oc(=O)n(CCN(C)C)c2c1`, for which the cytotoxicity at 70.5 h is -1.73%. Consider `CCSc1nsc(NC(=O)COc2ccc3c(c2)OCO3)n1`, for which the cytotoxicity at 70.5 h is -8.05%.

With `Cc1cccc(CN2CCC3(CCCN(C(=O)c4ccsc4)C3)C2=O)n1` (stereo not given), the cytotoxicity at 70.5 h stood at 5.46%. For `Cc1nnc2n1CCN(Cc1nc3ccccc3o1)C2`, the cytotoxicity at 70.5 h is -3.32%. For the molecule `Cc1cc2c(cc1Cl)C=CC1(CCN(CC(=O)NC3CCCC3)CC1)O2`, the cytotoxicity at 70.5 h is -1.12%. On to `O=C1N(c2ccccc2)Cc2n[nH]c(=O)n21`, for which the cytotoxicity at 70.5 h is -0.951%.

Consider `Cc1cnn(CC2CN(CC(=O)Nc3nccs3)CCO2)c1` (stereo not given), for which the cytotoxicity at 70.5 h is -2.45%.

As for `COc1cnc(N2C[C@H](CO)C[C@H](CN3CCOCC3)C2)nc1`, the cytotoxicity at 70.5 h was -2.01%.

For the molecule `Cc1cc(CN(C)C(=O)c2ccc(F)cc2F)no1`, the cytotoxicity at 70.5 h was -7.99%.

Turning to `CCOC(=O)CN1CCC(NC(=O)OC(C)(C)C)CC1`, the cytotoxicity at 70.5 h came to 14.9%.

`O=C(Cc1ccccc1)N1CC[C@@H]2CNS(=O)(=O)[C@@H]2CC1`: the cytotoxicity at 70.5 h came out at 2.48%. As for `CN(Cc1cccnc1)CC1CNCc2nccn2C1` (stereo not given), the cytotoxicity at 70.5 h was found to be 4.1%.

With `O=C(NCC1CCOC1)c1csc(Cc2ccccc2)n1` (stereo not given), the cytotoxicity at 70.5 h was 19.4%. As to `N#Cc1cccc(OCC(=O)N(Cc2ccncc2)C2CC2)c1`, the cytotoxicity at 70.5 h was -10.3%. For `Cc1nc(CNc2nc3c(s2)c(C)nn3C)cs1`, the cytotoxicity at 70.5 h was -8.75%. Turning to `O=C(O)CC[C@@H]1CN(c2ccncc2)CC[C@@H]1N1CCOCC1`, the cytotoxicity at 70.5 h is -3.32%. Regarding `COc1ccc(CN(C)Cc2ccnc(C3CCCO3)n2)cc1` (stereo not given), the cytotoxicity at 70.5 h is -2.06%. For `Cc1ccc(C(=O)NCCS(=O)(=O)Cc2ccccc2)c(C)c1`, the cytotoxicity at 70.5 h was determined as 1.96%.

With `COc1ccc(NC(=O)c2ccoc2C)c(N2CCN(C(C)=O)CC2)n1`, the cytotoxicity at 70.5 h was -14.1%. `CN1CCN(CCC(F)(F)C(F)F)CC12CCNC(=O)CC2` (stereo not given): the cytotoxicity at 70.5 h worked out at 4.17%. In the case of `O=C(CCCc1ccccc1)N1CCC(Nc2cccnn2)CC1` it was -4.29%; in that of `CCCc1c(C(=O)NC2CCCC2)nnn1-c1ccc(OC)cc1`, 16.8%; in that of `CC(C)(O)CN1CCN(C(=O)c2cccn2Cc2cccnc2)CC1`, -8.17%.

Turning to `COCCN(CCOC)c1ncccc1Cl`, the cytotoxicity at 70.5 h is -6.57%.

Consider `COc1ccc(CCNC(=O)C2CCOC2)c(Cl)c1` (stereo not given), for which the cytotoxicity at 70.5 h was -2.75%.
